Results reported in ChEMBL document CHEMBL4602605, “Fluoroquinolones structural and medicinal developments (2013-2018): Where are we now?” (Bioorg Med Chem, 2019).
Converted amounts (≈) assume the structure as drawn.

What was measured:
Type in all cases: functional
[1] = system: Escherichia coli; assay: Antibacterial activity against Escherichia coli NCDC 134 by single disk method
[2] = system: Pseudomonas aeruginosa; assay: Antibacterial activity against Pseudomonas aeruginosa NCDC 105 by single disk method
[3] = system: Bacillus subtilis; assay: Antibacterial activity against Bacillus subtilis NCDC 71 by single disk method
[4] = system: Paenibacillus polymyxa; assay: Antibacterial activity against Paenibacillus polymyxa NCDC 64 by single disk method
[5] = system: Staphylococcus aureus; assay: Antibacterial activity against Staphylococcus aureus NCDC 110 by single disk method
[6] = system: Mus musculus; assay: Analgesic activity in Swiss albino mouse assessed as acetic acid-induced writhing number at 50 mg/kg pretreated for 30 mins followed by acetic acid challenge and measured after 5 to 15 mins (reference value: 30.8 +/- 0.37)
[7] = system: Metaphire posthuma; assay: Anthelmintic activity against Pheretima posthuma assessed as mean paralysing time at 200 mg/ml

SMILES	MIC [1] [µg/mL]	MIC [2] [µg/mL]	MIC [3] [µg/mL]	MIC [4] [µg/mL]	MIC [5] [µg/mL]	Activity [6]	Time [7] [min]
O=C(CN1CCN(c2cc3c(cc2F)c(=O)c(C(=O)O)cn3C2CC2)CC1)Nc1nc2ccc([N+](=O)[O-])cc2s1	35 (≈ 61.8 µM)	45 (≈ 79.4 µM)	25 (≈ 44.1 µM)	55 (≈ 97.1 µM)	50 (≈ 88.3 µM)	14.2	22.8
O=C(CN1CCN(c2cc3c(cc2F)c(=O)c(C(=O)O)cn3C2CC2)CC1)Nc1nc2ccc(Cl)cc2s1	8 (≈ 14.4 µM)	15 (≈ 27 µM)	4 (≈ 7.19 µM)	15 (≈ 27 µM)	3 (≈ 5.4 µM)	13.8	26
O=C(CN1CCN(c2cc3c(cc2F)c(=O)c(C(=O)O)cn3C2CC2)CC1)Nc1nc2c(Cl)ccc(Cl)c2s1	6 (≈ 10.2 µM)	65 (≈ 110 µM)	10 (≈ 16.9 µM)	30 (≈ 50.8 µM)	5 (≈ 8.47 µM)	15.6	32.6
COc1c(N2CCN(CC(=O)Nc3nc4c(Cl)cccc4s3)C(C)C2)c(F)cc2c(=O)c(C(=O)O)cn(C3CC3)c12 (stereo not drawn)	60 (≈ 100 µM)	20 (≈ 33.3 µM)	75 (≈ 125 µM)	25 (≈ 41.7 µM)	4 (≈ 6.67 µM)	19.2	24.6
COc1c(N2CCN(CC(=O)Nc3nc4c([N+](=O)[O-])cccc4s3)C(C)C2)c(F)cc2c(=O)c(C(=O)O)cn(C3CC3)c12 (stereo not drawn)	65 (≈ 106 µM)	75 (≈ 123 µM)	40 (≈ 65.5 µM)	45 (≈ 73.7 µM)	60 (≈ 98.3 µM)	1.63	1.2
Cc1ccc2nc(NC(=O)CN3CCN(c4cc5c(cc4F)c(=O)c(C(=O)O)cn5C4CC4)CC3)sc2c1	20 (≈ 37.3 µM)	45 (≈ 84 µM)	35 (≈ 65.3 µM)	110 (≈ 205 µM)	40 (≈ 74.7 µM)	16.2	23.2
CCn1cc(C(=O)O)c(=O)c2cc(F)c(N3CCN(CC(=O)Nc4nc5ccc(C)cc5s4)CC3)cc21	65 (≈ 124 µM)	20 (≈ 38.2 µM)	30 (≈ 57.3 µM)	45 (≈ 85.9 µM)	25 (≈ 47.7 µM)	17.8	28.4
CCn1cc(C(=O)O)c(=O)c2cc(F)c(N3CCN(CC(=O)Nc4nc5c(Cl)ccc(Cl)c5s4)CC3)cc21	60 (≈ 104 µM)	30 (≈ 51.9 µM)	20 (≈ 34.6 µM)	15 (≈ 25.9 µM)	40 (≈ 69.1 µM)	17.4	26.8
COc1c(N2CCN(CC(=O)Nc3nc4ccc(Cl)c(Cl)c4s3)C(C)C2)c(F)cc2c(=O)c(C(=O)O)cn(C3CC3)c12 (stereo not drawn)	70 (≈ 110 µM)	30 (≈ 47.3 µM)	25 (≈ 39.4 µM)	25 (≈ 39.4 µM)	10 (≈ 15.8 µM)	0.73	2.7
CCn1cc(C(=O)O)c(=O)c2cc(F)c(N3CCN(CC(=O)Nc4nc5ccc(F)cc5s4)CC3)cc21	35 (≈ 66.3 µM)	40 (≈ 75.8 µM)	65 (≈ 123 µM)	55 (≈ 104 µM)	45 (≈ 85.3 µM)	18.6	23.6
CCn1cc(C(=O)O)c(=O)c2cc(F)c(N3CCN(CC(=O)Nc4nc5ccc([N+](=O)[O-])cc5s4)CC3)cc21	125 (≈ 225 µM)	55 (≈ 99.2 µM)	15 (≈ 27 µM)	75 (≈ 135 µM)	105 (≈ 189 µM)	17.8	27
CCn1cc(C(=O)O)c(=O)c2cc(F)c(N3CCN(CC(=O)Nc4nc5ccc(Cl)cc5s4)CC3)cc21	50 (≈ 91.9 µM)	10 (≈ 18.4 µM)	2 (≈ 3.68 µM)	25 (≈ 46 µM)	15 (≈ 27.6 µM)	15.2	23.6
COc1c(N2CCN(CC(=O)Nc3nc4c(C)cccc4s3)C(C)C2)c(F)cc2c(=O)c(C(=O)O)cn(C3CC3)c12 (stereo not drawn)	75 (≈ 129 µM)	85 (≈ 147 µM)	120 (≈ 207 µM)	60 (≈ 104 µM)	70 (≈ 121 µM)	20.8	32.4
O=C(CN1CCN(c2cc3c(cc2F)c(=O)c(C(=O)O)cn3C2CC2)CC1)Nc1nc2ccc(F)cc2s1	80 (≈ 148 µM)	60 (≈ 111 µM)	40 (≈ 74.1 µM)	125 (≈ 232 µM)	35 (≈ 64.9 µM)	17	27.8
